# Assay results taken from article PMC8659031, “Substituted Aryl Benzylamines as Potent and Selective Inhibitors of 17β-Hydroxysteroid Dehydrogenase Type 3” (Molecules, 2021).
# pIC50: −log10 of the molar value. Where two headings read alike, the source gives them in different places.
# Key:
# 17β-HSD Type 2 [1] = target: T1, 17β-HSD Type 2 (Homo sapiens, UniProt P37059); assay: 17β-HSD2 activity assay in MDA-MB-231 cells (E2 to E1); type: cell-based; design: endogenous in cells; host or cells: MDA-MB-231 human breast cancer cells
# T1 sequence (P37059 1-387): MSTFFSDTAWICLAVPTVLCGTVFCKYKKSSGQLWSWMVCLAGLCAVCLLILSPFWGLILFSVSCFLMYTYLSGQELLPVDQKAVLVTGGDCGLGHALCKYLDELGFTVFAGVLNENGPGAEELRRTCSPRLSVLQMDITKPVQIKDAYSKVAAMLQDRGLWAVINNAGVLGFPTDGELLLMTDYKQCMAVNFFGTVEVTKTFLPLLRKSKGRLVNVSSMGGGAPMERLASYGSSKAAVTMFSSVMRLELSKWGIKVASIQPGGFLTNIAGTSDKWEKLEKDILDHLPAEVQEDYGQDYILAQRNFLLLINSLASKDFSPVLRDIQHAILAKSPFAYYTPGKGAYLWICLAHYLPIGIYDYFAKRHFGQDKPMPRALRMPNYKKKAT
# Protocol: MDA-MB-231 human breast cancer cells in T25 flasks were incubated with 2 nM [^3H]-E2 (41.3 Ci/mmol; PerkinElmer, Beaconsfield, Bucks, UK) in the presence or absence of 10 µM candidate 17β-HSD3 inhibitors. After 3 h at 37 °C, the steroids were isolated from the mixture by extraction with diethyl ether and procedural losses were measured using [^14C]-E1 (5000 dpm; PerkinElmer). Separation of [^3H]-E1 from [^3H]-E2 was achieved using thin layer chromatography, eluting with dichloromethane/ethyl acetate, 4:1 v/v and the amount of [^3H]-E1 produced was calculated from the […] [^3H] counts detected and recovery of [^14C]-E1 (Beckman LS 6000 SC). A positive control was used in this assay (IC50 5.4 μM) to ensure reproducible results were obtained.
# 17β-HSD Type 1 = target: T2, 17β-HSD Type 1 (Homo sapiens, UniProt P14061); assay: 17β-HSD1 activity assay in T-47D breast cancer cells (estrone to estradiol); type: cell-based; details: T47D, T-47D cells; for inhibition at 10 µM: tested at 10 μM
# T2 construct: endogenous in cells; host or cells: T-47D breast cancer cells
# T2 sequence (P14061 1-328): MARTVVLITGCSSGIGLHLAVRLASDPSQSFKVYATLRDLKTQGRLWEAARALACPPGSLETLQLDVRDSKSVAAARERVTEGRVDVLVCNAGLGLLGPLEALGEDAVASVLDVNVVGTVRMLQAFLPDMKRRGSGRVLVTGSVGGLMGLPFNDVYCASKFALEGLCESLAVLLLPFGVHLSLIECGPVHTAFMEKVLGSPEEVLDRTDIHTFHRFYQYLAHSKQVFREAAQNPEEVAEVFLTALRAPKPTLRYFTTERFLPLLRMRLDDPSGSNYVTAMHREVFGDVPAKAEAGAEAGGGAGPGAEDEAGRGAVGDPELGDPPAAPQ
# Protocol: The assay is of a similar format to the 17β-HSD Type 3 TLC assay. T-47D breast cancer cells, which express a high ratio of 17β-HSD Type 1 to 17β-HSD Type 2, were used to test the conversion of labelled estrone to estradiol in the presence and absence of the potential inhibitors. The cells were incubated with [^3H]-estrone at a concentration of 2 nM, in the absence or presence of the inhibitors (10 μM). After incubation of the culture for 3 h at 37 °C, the products were isolated and separated by TLC using DCM/ EtOAc (4:1). The amount of estradiol formed was measured and compared to the control cells, where no inhibitor was present. Each assay was carried out in the presence of a positive control (IC50 of 27 nM) to ensure reproducible results were obtained.
# 17β-HSD3 = target: T3, 17β-HSD3 (Homo sapiens, UniProt P37058); assay: Assay for 17β-HSD3 activity (TLC assay) in 293-EBNA cells stably transfected with 17β-HSD3; type: cell-based; details: for inhibition at 10 µM: 293-EBNA, mean of at least two measurements, typically SD ±5%; for inhibition at 10 µM / pIC50: TLC assay; for pIC50: 293-EBNA[HSD3] cells, read-out: IC50 (17β-HSD3)
# T3 construct: expressed in transfected cells; host or cells: human 293-EBNA cells, stably transfected
# T3 sequence (P37058 1-310): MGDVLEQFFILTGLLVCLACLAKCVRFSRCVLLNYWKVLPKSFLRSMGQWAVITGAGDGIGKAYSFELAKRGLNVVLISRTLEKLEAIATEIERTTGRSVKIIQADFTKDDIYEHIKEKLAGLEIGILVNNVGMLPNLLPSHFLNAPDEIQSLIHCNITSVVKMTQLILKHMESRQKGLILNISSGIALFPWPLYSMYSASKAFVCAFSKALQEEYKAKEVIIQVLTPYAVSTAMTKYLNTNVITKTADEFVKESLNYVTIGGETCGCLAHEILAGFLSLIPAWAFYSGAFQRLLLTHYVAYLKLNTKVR
# Protocol: Human 293-EBNA cells stably transfected with 17β-HSD3 were plated at 50,000 cells/well in 24 well plates in complete growth medium. After 48 h 2–3 nM [^3H]-androstenedione in assay medium (500 mL DMEM medium with 5 mL 100 × L-glutamine and 5 mL 7.5% sodium bicarbonate solution) was added with or without test compound at 1.5 mL/well (triplicate), and the cells incubated at 37 °C. Two hours later 1 mL medium was removed from each well and placed in a 125 × 16 mm glass test tube containing 25 µL of recovery solution (5000 dpm ^14C-testosterone and 25 µg unlabelled testosterone […], and the tubes vortexed at high speed for 2 × 30 s. After the samples had settled into two phases, they were snap-frozen in a dry ice/methanol bath. The upper organic phase was decanted into 75 × 12 mm tubes and evaporated to dryness under an airstream using a sample concentrator (TECHNE) at 40 °C. The samples were resuspended in ether (8 drops, then a further 3), spotted onto ca 60 F254 20 cm × 20 cm TLC plates and separated using a 4:1 v/v dichloromethane: ethyl acetate mobile phase. After drying the plates, the major spots were marked under a UV lamp, cut out and placed in individual scintillation vials containing 0.5 mL methanol. These were then shaken lightly and allowed to stand for 15 min before adding 10 mL of EcoScintA (scintillation fluid) to each tube along with 0.5 mL assay medium and counted in a scintillation spectrometer (Beckman, High Wycombe, Bucks, UK), using a program for duel [^3H/^14C] isotopes. The number of cells/well was then counted using a Coulter10 counter (Beckman). The inhibitory activity of the test compounds was then assessed by calculating the amount of product formed correcting for crossover between isotope counts, recovery, dilution and non-enzymatic degradation fmol/hr/million cells) with and without inhibitor (% inhibition).
# [2] = design: method as in PMID 22512907; details: given subcutaneously to rats; cited from earlier work
# human 17β-HSD3 = tested on: human 17β-HSD3; design: method as in PMID 22512907; details: whole HEK-293 cells over-expressing human 17β-HSD3; cited from earlier work
# [3] = Compound toxicity, MTS/Alamar Blue proliferation assay, PC-3; type: cell-based; details: human, PC-3 (AR-) prostate cancer cells; PC3 (AR-); read-out: Cytotoxicity IC50 (µM) PC3 (AR-)
# Protocol: (§1) AR+ (LNCaP) and AR- (PC-3) PCa cell lines were used as standard lines to determine the cytotoxicity of HSD3 inhibitor compounds. Toxicity was assessed over 96 h in 96 well plates using the standard MTS/Alamar Blue proliferation assay and over longer durations by cell counting methodologies.
# [4] = Compound toxicity, MTS/Alamar Blue proliferation assay, LNCaP; type: cell-based; details: human, LNCaP (AR+) prostate cancer cells; read-out: Cytotoxicity IC50 (µM) LNCaP (AR+)
# Protocol: as §1
# 17β-HSD Type 2 [5] = target: T1, 17β-HSD Type 2; details: introduction; cited from earlier work
# [6] = tested on: LNCaP and PC-3 PCa cell lines; design: method as in PMID 18786604, PMID 23132791; details: introduction; cited from earlier work
# [7] = tested on: androstenedione-stimulated tumour growth; design: method as in PMID 18786604, PMID 23132791; details: mouse model; cited from earlier work
# [8] = design: method as in PMID 18786604, PMID 23132791; details: introduction; cited from earlier work
Compound,inhibition at 10 µM (17β-HSD Type 2 [1]),melting point,inhibition at 10 µM (17β-HSD3),pIC50 (17β-HSD3),inhibition at 10 µM (17β-HSD Type 1),IC50 at 96 h [3],IC50 at 96 h [4],also measured
"CC(=O)Nc1ccccc1CNc1ccccc1Oc1ccc(Cl)cc1 [Compound 1, N-(2-([2-(4-Chloro-phenoxy)-phenylamino]-methyl)-phenyl)-acetamide]",15.9%,194 to 196 °C,87%,6.05,–,–,–,inhibition at 1 µM (17β-HSD Type 1; tested at 1 μM): 1.3%
"CC(=O)N1CCC(C(=O)Nc2ccccc2CNc2ccccc2Oc2ccc(Cl)cc2)CC1 [Compound 23, 1-Acetyl-piperidine-4-carboxylic acid (2-[2-(4-chloro-phenoxy)-phenylamino]-methyl-phenyl)-amide]",–,140 to 143 °C,91%,5.41,-2.3%,–,–,–
C[C@@H]1CN(S(=O)(=O)c2ccccc2C(F)(F)F)[C@@H](C)CN1[C@@]1(O)CC[C@@]2(C)C(CCC3C2CC[C@]2(C)C(=O)CCC32)C1 (stereo partly drawn) [RM-532-105],–,–,–,–,–,–,–,plasma levels of T and DHT [2]: significantly decreased; pIC50 (human 17β-HSD3): 8.30
CC(=O)N1CCC(CC(=O)N2CCN(C(c3ccc(Cl)cc3)c3ccc(Cl)cc3)C[C@@H]2C(C)(C)C)CC1 [SCH-451659],18.4%,–,–,–,19.6%,6.8 µM,5.5 µM,"IC50 (17β-HSD3; Table 10, read-out: Inhibition of 17β-HSD Type 3 (IC50 nM)): 5 nM"
CC(=O)N1CCCC(Nc2ccccc2Oc2ccc(Cl)cc2)c2ccccc21 (stereo not drawn) [STX2171],20.3%,–,–,6.70,–,22 µM,15.7 µM,selectivity for inhibition of 17β-HSD3 over 17β-HSD2 (17β-HSD Type 2 [5]): selective; cytotoxicity in words [6]: weakly cytotoxic; inhibition of androstenedione-stimulated tumour growth [7]: potent inhibition; androgenicity [8]: non-androgenic
